Data from patent publication US9399623B2, “Quinoline derivatives and their use in neurodegenerative diseases” (Merck Patent GmbH, priority 2014, dated 2016).

How the values were obtained:
[1] = target: T1, P2X7 (Homo sapiens, UniProt Q99572); experiment: Pore permeation assay (YO PRO dye uptake, BzATP-induced); format: cell-based; design: expressed in transfected cells; host or cells: HEK293; conditions: HEK293 transfected with human P2X7 receptor; YO PRO dye 1 uM, BzATP 10 uM; read-out: hP2X7 IC50
T1 sequence (Q99572 1-595): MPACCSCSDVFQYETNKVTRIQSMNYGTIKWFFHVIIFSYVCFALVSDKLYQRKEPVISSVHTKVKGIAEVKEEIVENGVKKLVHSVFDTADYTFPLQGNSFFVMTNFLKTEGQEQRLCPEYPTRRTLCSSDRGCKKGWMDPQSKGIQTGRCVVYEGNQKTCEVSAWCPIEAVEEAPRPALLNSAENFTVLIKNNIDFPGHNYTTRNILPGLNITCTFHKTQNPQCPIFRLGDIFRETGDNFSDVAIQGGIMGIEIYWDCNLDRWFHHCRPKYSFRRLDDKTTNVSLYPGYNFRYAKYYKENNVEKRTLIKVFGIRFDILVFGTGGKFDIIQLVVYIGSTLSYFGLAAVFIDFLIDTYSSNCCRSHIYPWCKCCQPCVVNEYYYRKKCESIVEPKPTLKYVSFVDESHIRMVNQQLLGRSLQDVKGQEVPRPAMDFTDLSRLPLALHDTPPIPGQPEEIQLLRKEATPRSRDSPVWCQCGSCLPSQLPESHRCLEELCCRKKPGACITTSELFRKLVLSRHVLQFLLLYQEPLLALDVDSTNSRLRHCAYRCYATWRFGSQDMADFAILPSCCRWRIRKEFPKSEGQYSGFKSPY
In short: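 HEK293 cells overexpressing human P2X7, plated overnight at 37 C, preincubated 20 min at room temperature with compound (10-point series from 2.5 uM) in HEPES-buffered saline pH 7.4 with 0.1 mM CaCl2. Then 10 uM BzATP plus 1 uM YO PRO added; dye uptake read by fluorescence after 30 min at room temperature.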

[2] = target: T1, P2X7; experiment: IL-1β release assay in THP-1 cells (sandwich ELISA); format: cell-based; design: release of mature IL-1β in the culture medium of THP-1 cells; endogenous in cells; host or cells: THP-1 cells (PMA-differentiated, LPS-primed); conditions: PMA, LPS primed, stimulated with 0.8 mM BzATP, mature IL-1β release, read-out: hTHP-1/IL-ib IC50
In short: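 THP-1 cells differentiated with 0.5 μM PMA and primed 4 h with 10 ng/ml LPS at 37° C, then preincubated 20 min with compound. Stimulated with 0.8 mM BzATP for 30 min; mature IL-1β released into the supernatant quantified by sandwich ELISA.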

Compound	IC50 [1]	IC50 [2]
O=C(NCC1CCC(F)(F)CC1)c1c(Cl)ccc2nc(NCCO)ccc12 [Compound 66, 6-Chloro-2-(2-hydroxy-ethylamino)-quinoline-5-carboxylic acid (4,4-difluoro-cyclohexyl methyl)-amide]	10 to 100 nM	10 to 100 nM
CC(=O)NC1CCN(c2ccc3c(C(=O)NCC4CCC(F)(F)CC4)c(Cl)ccc3n2)C1 (stereo not shown) [Compound 67, 2-(3-Acetylamino-pyrrolidin-1-yl)-6-chloro-quinoline-5-carboxylic acid (4,4-difluoro-cyclohexylmethyl)-amide]	10 to 100 nM	101 to 500 nM
COCCNc1ccc2c(C(=O)NCC3CCC(F)(F)CC3)c(Cl)ccc2n1 [Compound 68, 6-Chloro-2-(2-methoxy-ethylamino)-quinoline-5-carboxylic acid (4,4-difluoro-cyclohexyl methyl)-amide]	10 to 100 nM	500 to 999 nM
COCCCOc1ccc2c(C(=O)NCC3CCC(F)(F)CC3)c(Cl)ccc2n1 [Compound 69, 6-Chloro-2-(3-methoxy-propoxy)-quinoline-5-carboxylic acid (4,4-difluoro-cyclohexylmethyl)-amide]	10 to 100 nM	101 to 500 nM
COCCOc1ccc2c(C(=O)NCC3CCC(F)(F)CC3)c(Cl)ccc2n1 [Compound 70, 6-Chloro-2-(2-methoxy-ethoxy)-quinoline-5-carboxylic acid (4,4-difluoro-cyclohexyl methyl)-amide]	10 to 100 nM	101 to 500 nM
CN(CCO)c1ccc2c(C(=O)NCC3CCC(F)(F)CC3)c(Cl)ccc2n1 [Compound 73]	10 to 100 nM	101 to 500 nM
O=C(NCC1CCC(F)(F)CC1)c1c(Cl)ccc2nc(N3CC(F)(F)C3)ccc12 [Compound 74, 6-Chloro-2-(3,3-difluoro-azetidin-1-yl)-quinoline-5-carboxylic acid (4,4-difluoro-cyclohexylmethyl)-amide]	101 to 500 nM	101 to 500 nM
O=C(NCC1(O)CCCC(F)(F)C1)c1c(Cl)ccc2nc(N3CC(F)(F)C3)ccc12 (stereo not shown) [Compound 75, 6-Chloro-2-(3,3-difluoroazetidin-1-yl)-quinoline-5-carboxylic acid (3,3-difluoro-1-hydroxycyclohexylmethyl)-amide]	101 to 500 nM	101 to 500 nM
O=C(NCC1(O)CCC(F)(F)CC1)c1c(Cl)ccc2ncccc12 [Compound 76]	101 to 500 nM	10 to 100 nM
O=C(NCC1CCC(F)(F)CC1)c1c(Cl)ccc2ncccc12 [Compound 78]	101 to 500 nM	10 to 100 nM
O=C(NC[C@]1(O)CCCC(F)(F)C1)c1c(Cl)ccc2nc(N3CCC(F)(F)C3)ccc12 [Compound 80, 6-Chloro-2-(3,3-difluoropyrrolidin-1-yl)-quinoline-5-carboxylic acid ((S)-3,3-difluoro-1-hydroxycyclohexylmethyl)-amide]	101 to 500 nM	> 1000 nM
